Measured values reported in US20220213049A1, “S[…]-4-ONE FOR THE TREATMENT AND PROPHYLAXIS OF HEPATITIS B VIRUS INFECTION” (priority 2019, published 2022).
pIC50: −log10 of the molar value.

The compounds below were run on HBeAg (surrogate marker for cccDNA) in HepDES19 cells (assay: Engineered HepDES19 primary screen assay (HBeAg ELISA)). Details: Hepatitis B virus, HepDES19, 120 h, read-out: IC50 (HBeAg level, HepDES19 primary screen assay).
Assay type: cell-based, HBV
Excerpt: The assay was employed to screen for novel cccDNA inhibitors. HepDES19 is a cccDNA-producing cell line. In this cell line, HBeAg in the cell culture supernatant as surrogate marker, as HBeAg production depends on cccDNA level and activity. HepDES19 is an engineered cell line which contains a 1.1 unit length HBV genome, and pgRNA transcription from the transgene is controlled by Tetracycline (Tet). In the absence of Tet, pgRNA transcription will be induced, but HBV e antigen (HBeAg) could not be produced from this pgRNA due to very short leader sequence before the HBeAg start codon and the start codon is disrupted. Only after cccDNA is formed, the missing leader sequence and start codon mutation would be restored from the 3′-terminal redundancy of pgRNA, and then HBeAg could be synthesized. Therefore, HBeAg could be used as a surrogate marker for cccDNA (Zhou, T. et al., Antiviral Res. (2006), 72(2), 116-124; Guo, H. et al., J. Virol. (2007), 81(22), 12472-12484).
HepDES19 cells were seeded at 2×10^6 cells per T150 flask and cultured with the culture medium (Dulbecco's Modified Eagle Medium: Nutrient Mixture F-12 [DMEM-F12, Gibco Cat. 11320-82], 10% Fetal Bovine Serum [FBS, Clontech Cat. 631101], 0.1 mM Non-Essential Amino Acids Solution [NEAA, Gibco Cat. 11140-050], 50 μg/mL Penicillin-Streptomycin [PS, Invitrogen Cat. 15140-163], 500 μg/mL Geneticin [G418, Invitrogen Cat. 10131-027]) containing 3 μg/mL Tet (Sigma, Cat. 87128) for 5 days. Cells were then seeded at 4×10^6 cells per T150 in the same culture medium as described above in the absence of Tet for 8 days. Cells were then harvested and frozen at density of 2×10^6 cells per ML. For compound testing, the frozen cells were thawed and seeded into 96-well plates at a density of 6×10^4 cells per well. At 24 hours after seeding, half log serial dilutions of compounds made with Dimethyl sulfoxide (DMSO, Sigma, Cat. D2650) were further diluted with the same culture medium as described above before they were added to the cells to reach desired final compound concentrations and 1% DMSO concentration. Plates were then incubated at 37° C. for another 5 days before measurement of HBeAg level and cell viability. Intracellular HBeAg level were measured with enzyme-linked immunosorbent assay (ELISA) kit (Shanghai Kehua Diagnostic Medical Products Co., Ltd). Cell viability was assessed using Cell Counting Kit-8 (DonJindo, Cat. CK04-20). IC50 values were derived from the dose-response curve using 4 parameter logistic curve fit method.
The compounds of the present invention were tested for their capacity to inhibit extracellular HBeAg level as described herein.

Point of comparison: `O=c1cc(-c2ccc(C(F)(F)F)c(O[C@H]3C[C@H](C(=O)O)C3)c2)oc2c(Cl)cccc12` [Example 21, trans-3-[5-(8-chloro-4-oxo-chromen-2-yl)-2-(trifluoromethyl)phenoxy]cyclobutanecarboxylic acid], pIC50 5.39. Against it:
- COc1cc(Br)c(OCCC(=O)NS(=O)(=O)C2CC2)cc1-c1cc(=O)c2cccc(Cl)c2o1 [Example 3, 3-[2-Bromo-5-(8-chloro-4-oxo-chromen-2-yl)-4-methoxy-phenoxy]-N-cyclopropylsulfonyl-propanamide] — 0.85 log units higher, 6.24
- COc1cc(Br)c(OCC(=O)O)cc1-c1cc(=O)c2cccc(Cl)c2o1 [Example 4, 2-[2-Bromo-5-(8-chloro-4-oxo-chromen-2-yl)-4-methoxy-phenoxy]acetic acid] — 0.32 log units higher, 5.71
- COc1cc(Br)c(OCCCOCC(=O)O)cc1-c1cc(=O)c2cccc(Cl)c2o1 [Example 6, 2-[3-[2-Bromo-5-(8-chloro-4-oxo-chromen-2-yl)-4-methoxy-phenoxy]propoxy]acetic acid] — 0.39 log units higher, 5.78
- COc1cc(Cl)c(OC2CC(C(=O)O)C2)cc1-c1cc(=O)c2cccc(Cl)c2o1 (centres unmarked) [Example 7, 3-[2-Chloro-5-(8-chloro-4-oxo-chromen-2-yl)-4-methoxy-phenoxy]cyclobutanecarboxylic acid] — within 0.2 log units, 5.35
- COc1cc(C)c(OCCOC2CC(C(=O)O)C2)cc1-c1cc(=O)c2cccc(Cl)c2o1 (centres unmarked) [Example 9, 3-[2-[5-(8-Chloro-4-oxo-chromen-2-yl)-4-methoxy-2-methyl-phenoxy]ethoxy]cyclobutanecarboxylic acid] — within 0.2 log units, 5.28
- COc1cc(C)c(OCCC(=O)O)cc1-c1cc(=O)c2cccc(Cl)c2o1 [Example 10, 3-[5-(8-Chloro-4-oxo-chromen-2-yl)-4-methoxy-2-methyl-phenoxy]propanoic acid] — 0.42 log units higher, 5.81
- COc1cc(OC)c(-c2cc(=O)c3cccc(Cl)c3o2)cc1OC1CC(C(=O)O)C1 (centres unmarked) [Example 12, 3-[5-(8-Chloro-4-oxo-chromen-2-yl)-2,4-dimethoxy-phenoxy]cyclobutanecarboxylic acid] — 0.82 log units higher, 6.21
- COc1cc(OC)c(-c2cc(=O)c3cccc(Cl)c3o2)cc1OCCOC1CC(C(=O)O)C1 (centres unmarked) [Example 13, 3-[2-[5-(8-Chloro-4-oxo-chromen-2-yl)-2,4-dimethoxy-phenoxy]ethoxy]cyclobutanecarboxylic acid] — 1.33 log units higher, 6.72
- Cc1ccc(-c2cc(=O)c3cccc(Cl)c3o2)cc1OCC(=O)O [Example 14, 2-[5-(8-Chloro-4-oxo-chromen-2-yl)-2-methyl-phenoxy]acetic acid] — within 0.2 log units, 5.20
- Cc1ccc(-c2cc(=O)c3cccc(Cl)c3o2)cc1O[C@H]1C[C@H](C(=O)O)C1 [Example 16, trans-3-[5-(8-chloro-4-oxo-chromen-2-yl)-2-methyl-phenoxy]cyclobutanecarboxylic acid] — within 0.2 log units, 5.20
- COc1ccc(-c2cc(=O)c3cccc(Cl)c3o2)cc1OC1CC(C(=O)O)C1 (centres unmarked) [Example 17, 3-[5-(8-Chloro-4-oxo-chromen-2-yl)-2-methoxy-phenoxy]cyclobutanecarboxylic acid] — 0.75 log units higher, 6.14
- COc1ccc(-c2cc(=O)c3cccc(Cl)c3o2)cc1OCCOC1CC(C(=O)O)C1 (centres unmarked) [Example 18, 3-[2-[5-(8-Chloro-4-oxo-chromen-2-yl)-2-methoxy-phenoxy]ethoxy]cyclobutanecarboxylic acid] — 0.89 log units higher, 6.28
- COc1ccc(-c2cc(=O)c3cccc(Cl)c3o2)cc1OCCC(=O)O [Example 19, 3-[5-(8-Chloro-4-oxo-chromen-2-yl)-2-methoxy-phenoxy]propanoic acid] — 0.29 log units lower, 5.10
- O=c1cc(-c2ccc(C(F)(F)F)c(O[C@H]3C[C@@H](C(=O)O)C3)c2)oc2c(Cl)cccc12 [Example 20, Cis-3-[5-(8-chloro-4-oxo-chromen-2-yl)-2-(trifluoromethyl)phenoxy]cyclobutanecarboxylic acid] — 0.28 log units higher, 5.67
- COc1cc(-c2cc(=O)c3cccc(Cl)c3o2)cc(O[C@H]2C[C@@H](C(=O)O)C2)c1OC [Example 23, Cis-3-[5-(8-chloro-4-oxo-chromen-2-yl)-2,3-dimethoxy-phenoxy]cyclobutanecarboxylic acid] — 0.26 log units lower, 5.13
- COc1cc(-c2cc(=O)c3cccc(Cl)c3o2)cc(OCCO[C@H]2C[C@H](C(=O)O)C2)c1OC [Example 24, Trans-3-[2-[5-(8-chloro-4-oxo-chromen-2-yl)-2,3-dimethoxy-phenoxy]ethoxy]cyclobutanecarboxylic acid] — 0.45 log units higher, 5.84
- COc1cc(-c2cc(=O)c3cccc(Cl)c3o2)cc(OCC(=O)O)c1OC [Example 25, 2-[5-(8-Chloro-4-oxo-chromen-2-yl)-2,3-dimethoxy-phenoxy]acetic acid] — 0.27 log units lower, 5.12
- COc1cc(Br)c(-c2cc(=O)c3cccc(Cl)c3o2)cc1O[C@H]1C[C@H](C(=O)O)C1 [Example 26, Trans-3-[4-bromo-5-(8-chloro-4-oxo-chromen-2-yl)-2-methoxy-phenoxy]cyclobutanecarboxylic acid] — 0.58 log units higher, 5.97
- COc1cc(Br)c(-c2cc(=O)c3cccc(Cl)c3o2)cc1OCCO[C@H]1C[C@H](C(=O)O)C1 [Example 27, Trans-3-[2-[4-Bromo-5-(8-chloro-4-oxo-chromen-2-yl)-2-methoxy-phenoxy]ethoxy]cyclobutanecarboxylic acid] — within 0.2 log units, 5.49
- COc1c(OC2CC(C(=O)O)C2)cccc1-c1cc(=O)c2cccc(Cl)c2o1 (centres unmarked) [Example 28, 3-[3-(8-Chloro-4-oxo-chromen-2-yl)-2-methoxy-phenoxy]cyclobutanecarboxylic acid] — 0.86 log units higher, 6.25
- COc1c(OCCO[C@H]2C[C@@H](C(=O)O)C2)cccc1-c1cc(=O)c2cccc(Cl)c2o1 [Example 29, Cis-3-[2-[3-(8-chloro-4-oxo-chromen-2-yl)-2-methoxy-phenoxy]ethoxy]cyclobutanecarboxylic acid] — within 0.2 log units, 5.49
- COc1ccc(OC2CC(C(=O)O)C2)cc1-c1cc(=O)c2cccc(Cl)c2o1 (centres unmarked) [Example 30, 3-[3-(8-Chloro-4-oxo-chromen-2-yl)-4-methoxy-phenoxy]cyclobutanecarboxylic acid] — 0.27 log units lower, 5.12
- COc1ccc(OCC(=O)O)cc1-c1cc(=O)c2cccc(Cl)c2o1 [Example 32, 2-[3-(8-Chloro-4-oxo-chromen-2-yl)-4-methoxy-phenoxy]acetic acid] — 0.24 log units lower, 5.15
- COc1ccc(OCCC(=O)O)cc1-c1cc(=O)c2cccc(Cl)c2o1 [Example 33, 3-[3-(8-Chloro-4-oxo-chromen-2-yl)-4-methoxy-phenoxy]propanoic acid] — 0.22 log units lower, 5.17
- COc1c(-c2cc(=O)c3cccc(Cl)c3o2)ccc(Br)c1OCCO[C@H]1C[C@@H](C(=O)O)C1 [Example 34, Cis-3-[2-[6-bromo-3-(8-chloro-4-oxo-chromen-2-yl)-2-methoxy-phenoxy]ethoxy]cyclobutanecarboxylic acid] — 0.64 log units higher, 6.03
- COc1c(-c2cc(=O)c3cccc(Cl)c3o2)ccc(Cl)c1OCC(=O)O [Example 37, 2-[6-Chloro-3-(8-chloro-4-oxo-chromen-2-yl)-2-methoxy-phenoxy]acetic acid] — 0.39 log units lower, 5.00
- COc1ccc(-c2cc(=O)c3cccc(Cl)c3o2)c(OC)c1OCC(=O)O [Example 38, 2-[3-(8-Chloro-4-oxo-chromen-2-yl)-2,6-dimethoxy-phenoxy]acetic acid] — 0.56 log units higher, 5.95
- CCOc1cc(Br)c(OCCC(=O)O)cc1-c1cc(=O)c2cccc(Cl)c2o1 [Example 39, 3-[2-Bromo-5-(8-chloro-4-oxo-chromen-2-yl)-4-ethoxy-phenoxy]propanoic acid] — 1.57 log units higher, 6.96
